Test results reported in patent publication US4613695A, “N-nitroso compounds and compositions containing such compounds” (Aktiebolaget Leo, priority 1982, dated 1986).
Read-outs that look alike come from different tables or passages of the source.

Key:
[1] = system: Walker carcinosarcoma 256; test: Walker carcinosarcoma 256 tumour growth inhibition (single p.o. dose); assay type: in vivo, Female Sprague Dawley rats; details: for ED50: Rattus norvegicus, po; for T.I. LD50/ED50: therapeutic index LD50/ED50; for T.I. LD50/ED50 / activity in the foregoing test (Walker carcinosarcoma 256): p.o.; for activity in the foregoing test (Walker carcinosarcoma 256): dose of 8 mg/kg, preliminary experiments
Excerpt: (§1) A therapeutic index is an indication of the therapeutic usefulness of a compound, and such an index may be defined in various ways. One type of therapeutic index commonly used is the ratio LD50/ED50, wherein LD50 is the dose that causes a 50 percent lethality, and ED50 is the dose that causes a 50 percent reduction of tumour size. Another type of therapeutic index, useful in evaluation of increasing survival time, is the ratio between maximum and minimum effective dose. Both these types of therapeutic indexes are used and given in the experimental results below.
(§2) The manner of administration of the compounds is by the oral (p. o.) route in each case.
(§3) Experimental animals: Female Sprague Dawley rats
(§4) Tumour implants: Tumour pieces with 2-3 mm diameter, implanted subcutaneously
(§5) Therapy: The compound is administered p. o. once on the day after the implantation
Termination: The animals are killed on the 9th day after implantation
(§6) Evaluation: Weight of tumour is determined in test animals and compared with those of control animals. For each compound the LD50 and ED50 dose (as defined above) are determined. The therapeutic index, T. I., (LD50/ED50) is calculated.

Lymphatic leukemia L1210 = Lymphatic leukemia L1210 survival test (survival time increase, long term survival, cure potential); assay type: in vivo, Female BDF1 mice; details: for minimal effective dose: Mus musculus, L1210, po; for T.I.s (long term survival; max.effect.dose/min.effect.dose): long term survival T·100/To >20%; for T.I.s = max.effect.dose/min.effect.dose: survival time increase, t·100/c ≥125%; for Dose or dose range for cure: ≥90% long term survivors on day 60; for median survival time percent of control: dose of 125 mg/kg, p.o., called significant activity
Method: The experimental design and interpretation of the results are in accordance with the standards set by the CCNSC (see reference (16)) and by the DR&D (see reference (17)).
Experimental animals: Female BDF1 mice
Tumour implants: 10^5 tumour cells implanted intraperitoneally (i. p.)
Therapy: The compounds were administered p. o. once on the day following the implantation.
Termination: The animals were killed on the 60th day after the implantation. Living animals on the 60th day are termed long term survivors.
(a) Evaluation of therapeutic dose range for survival time increase: Survival times at various dose levels are determined, and the survival time of the test animals (t) is expressed as the percentage of that of the control animals (c):
The maximum effective dose and the minimum effective dose required to achieve t·100/c≥125% are determined, and a therapeutic index as defined below is calculated:
T. I.s =max.effect.dose/min.effect.dose.
(b) Evaluation of therapeutic dose range for long term survival: Long time survival is determined at various dose levels and is expressed as surviving test animals on day 60 (T) as the percentage of that of the total number of test animals (To):
The maximum effective dose and the minimum effective dose to achieve long term survival T·100/To >20% are determined and a therapeutic index, T. I.1 s is calculated:
T. I.1s =max.effect.dose/min.effect.dose.
(c) Evaluation of cure potential: The normal survival time for test animals receiving no therapeutic treatment is 9-11 days. Surviving test animals on the 60th day after implantation showing no sign of tumour presence are regarded as cured animals. Long term survival is determined as under (b) above, and the effective dose or dose range to achieve a long term survival T·100/To ≥90% is determined as an evaluation of the cure potential.

in vivo = details: rat, po
Excerpt: as §1, §2, §3, §4, §5, §6

[2] = dose that causes a 50 percent reduction of tumour size, p.o. once, read-out: ED50
[3] = 1440 h, >20% long term survivors on day 60, p.o. once, read-out: Minimum effective dose (long term survival)
[4] = median survival time percent of control ≥ 125%, p.o. once, read-out: Minimum effective dose (survival time increase)
[5] = median survival time percent of control ≥ 125%, p.o. once
[6] = >20% long term survivors on day 60, p.o. once

Structure (SMILES) | minimal effective dose (Lymphatic leukemia L1210; [3]) | minimal effective dose (Lymphatic leukemia L1210; [4]) | T.I.s (long term survival; max.effect.dose/min.effect.dose) (Lymphatic leukemia L1210) | Maximum effective dose (survival time increase) (Lymphatic leukemia L1210; [5]) | T.I.s = max.effect.dose/min.effect.dose (Lymphatic leukemia L1210) | Dose or dose range for cure (Lymphatic leukemia L1210; p.o. once) | also measured
CN(C)S(=O)(=O)CCNC(=O)N(CCCl)N=O [1:1, 1-(2-chloroethyl)-3-/2-(dimethylaminosulfonyl)ethyl/-1-nitrosourea] | 31 mg/kg | 8 mg/kg | 2 | 63 mg/kg | 8 | 31 to 63 mg/kg | ED50 [1, 2]: 0.25 mg/kg; T.I. LD50/ED50 [1]: 200; LD50 (in vivo): 50 mg/kg
COCCNS(=O)(=O)CCNC(=O)N(CCCl)N=O [1:8, 1-(2-chloroethyl)-3-(2-/2-methoxyethylaminosulfonyl/ethyl)-1-nitrosourea] | 31 mg/kg |  | 2 |  |  | 31 to 63 mg/kg | 
CCCCNS(=O)(=O)CCNC(=O)N(CCCl)N=O [1:9, 3-(2-/butylaminosulfonyl/ethyl)-1-(2-chloroethyl)-1-nitrosourea] | 63 mg/kg | 16 mg/kg | 2 | 125 mg/kg | 8 | 63 mg/kg | 
CC(C)(C)NS(=O)(=O)CCNC(=O)N(CCCl)N=O [1:10, 3-(2-/t-butylaminosulfonyl/ethyl)-1-(2-chloroethyl)-1-nitrosourea] |  |  |  |  |  |  | median survival time percent of control (Lymphatic leukemia L1210): ≥ 125%
O=NN(CCCl)C(=O)NCCS(=O)(=O)NC1CCCCC1 [1:11, 1-(2-chloroethyl)-3-(2-/cyclohexylaminosulfonyl/ethyl)-1-nitrosourea] | 63 mg/kg | 31 mg/kg | 2 | 250 mg/kg | 8 | 125 mg/kg | 
O=NN(CCCl)C(=O)NCCS(=O)(=O)N(CCO)CCO [1:12, 3-(2-/bis(2-hydroxyethyl)aminosulfonyl/ethyl)-1-(2-chloroethyl)-1-nitrosourea] |  |  |  |  |  | 125 mg/kg | 
CCCCC(C)NS(=O)(=O)CCNC(=O)N(CCCl)N=O (centres unmarked) [1:13, 1-(2-chloroethyl)-3-(2-/1-methylpentylaminosulfonyl/ethyl)-1nitrosourea] |  |  |  |  |  |  | median survival time percent of control (Lymphatic leukemia L1210): ≥ 125%
CC(C)(CO)NS(=O)(=O)CCNC(=O)N(CCCl)N=O [1:16, 1-(2-chloroethyl)-3-(2-/1,1-dimethyl-2-hydroxyethylaminosulfonyl/ethyl)-1-nitrosourea] |  |  |  |  |  | 250 mg/kg | 
CN(Cc1ccccc1)S(=O)(=O)CCNC(=O)N(CCCl)N=O [1:17, 3-(2-/N-benzyl-N-methylaminosulfonyl/ethyl)-1-(2-chloroethyl)-1-nitrosourea] | 125 mg/kg | 63 mg/kg | 2 | 500 mg/kg | 8 |  | 
CN(c1ccccc1)S(=O)(=O)CCNC(=O)N(CCCl)N=O [1:18, 1-(2-chloroethyl)-3-(2-/N-methyl-N-phenylaminosulfonyl/ethyl)-1-nitrosourea] |  |  |  |  |  |  | median survival time percent of control (Lymphatic leukemia L1210): ≥ 125%
CON(C)S(=O)(=O)CCNC(=O)N(CCCl)N=O [1:20, 1-(2-chloroethyl)-3-(2-/N-methoxy-N-methylaminosulfonyl/ethyl)-1-nitrosourea] | 63 mg/kg | 16 mg/kg | 2 | 125 mg/kg | 8 | 63 to 125 mg/kg | 
CN(C)S(=O)(=O)CCCNC(=O)N(CCCl)N=O [1:21, 1-(2-chloroethyl)-3-(3-/dimethylaminosulfonyl/propyl)-1-nitrosourea] | 31 mg/kg | 8 mg/kg | 2 | 63 mg/kg | 8 | 31 to 63 mg/kg | 
CN(C)S(=O)(=O)CCNS(=O)(=O)CCNC(=O)N(CCCl)N=O [1:23, 1-(2-chloroethyl)-3-(2-/2-(dimethylaminosulfonyl)ethylaminosulfonyl/ethyl)-1-nitrosourea] | 63 mg/kg |  | 2 |  |  | 125 mg/kg | 
COCCN(CCS(=O)(=O)N(C)C)C(=O)N(CCCl)N=O [1:48, 1-(2-chloroethyl)-3-(2-methoxyethyl)-3-/2-(dimethylaminosulfonyl)ethyl/-1-nitrosourea] |  |  |  |  |  |  | activity in the foregoing test (Walker carcinosarcoma 256) [1]: significant activity
CCN(C)S(=O)(=O)CCNC(=O)N(CCCl)N=O [1:52, 1-(2-chloroethyl)-3-(2-/N-ethyl-N-methylaminosulfonyl/ethyl)-1-nitrosourea] | 31 mg/kg |  | 2 |  |  |  | activity in the foregoing test (Walker carcinosarcoma 256) [1]: significant activity
CCCN(CC)S(=O)(=O)CCNC(=O)N(CCCl)N=O [1:53, 1-(2-chloroethyl)-3-(2-/N-ethyl-N-propylaminosulfonyl/ethyl)-1-nitrosourea] | 125 mg/kg | 31 mg/kg | 2 | 500 mg/kg | 16 | 125 to 150 mg/kg | ED50 [1, 2]: 1.7 mg/kg
CCN(CCS(=O)(=O)N(C)C)C(=O)N(CCCl)N=O [1:54, 1-(2-chloroethyl)-3-(2-/dimethylaminosulfonyl/ethyl)-3-ethyl-1-nitrosourea] |  |  |  |  |  |  | activity in the foregoing test (Walker carcinosarcoma 256) [1]: significant activity; median survival time percent of control (Lymphatic leukemia L1210): ≥ 125%
O=NN(CCCl)C(=O)NC1CCCCC1 [CCNU, 1-(2-chloroethyl)-3-cyclohexyl-1-nitrosourea, reference compound] |  |  |  |  |  |  | ED50 [1, 2]: 1 mg/kg; T.I. LD50/ED50 [1]: 90; LD50 (in vivo): 90 mg/kg
O=P1(N(CCCl)CCCl)NCCCO1 (centres unmarked) [Cyclophosphamide, reference compound] |  |  |  |  |  |  | ED50 [1]: 6 mg/kg; T.I. LD50/ED50 [1]: 30; LD50 (in vivo): 180 mg/kg
CC1CCC(NC(=O)N(CCCl)N=O)CC1 (centres unmarked) [Methyl-CCNU, 1-(2-chloroethyl)-3-(4-methyl-cyclohexyl)-1-nitrosourea, reference compound] |  | 8 mg/kg | none | 31 mg/kg | 4 |  | Maximum effective dose (long term survival) (Lymphatic leukemia L1210; [6]): none; Minimum effective dose (long term survival) (Lymphatic leukemia L1210; [6]): none
